Patent US8603493B2, “Carbosilane dendrimers, preparation method thereof and use of same” (Dendrico, S.L., priority 2005, dated 2013)

Key:
HIVNL4.3 = assay: HIV inhibition test in PBMC; assay type: cell-based; conditions: NN 1, 3 and 5 μM before or after infection, 0.4 MOI, 24 h
Protocol: The HIVNL4.3 virus strain was then added at a concentration of 1 particle per cell (1 MOI). The MT-2 and the virus were cultured during at least 2 hours at 37° C., stirring the culture every 15-30 minutes. Finally, the cultures (cells-virus) were washed twice to remove the virus which had not integrated in the cell genome. The cells were transferred and cultured in 25 cm^2 bottles in the same culture medium. […] All of them were placed in octuplicate and were maintained at 37° C. in CO2 atmosphere during a week. After this time, the titering was read by display of the cytopathic effect and […] formation. The titering was calculated by applying Spearman-Karber's formula^[30], which serves to quantify the number of particles of virus per ml of medium in a culture in which serial dilutions of the concentrate of virus to titer have been seeded in octuplicate. The PBMC were stimulated during 48 hours with 2 μg/ml of PHA and 100 IU of IL-2, to provoke a polyclonal activation; after 24 hours the cells were washed with PBS. […] The cultures were incubated at 37° C. and they were maintained in a humidified atmosphere with 5% CO2. […] To eliminate the influence of the possible toxicity of the dendrimer on the number of cells and the quantity of viral copies, the number of virus copies was adjusted to the percentage of live cells to be able to make comparisons between different dendrimer concentrations. […]

ODN TAR = assay: Stability of the NN-ODN dendriplex in complete medium with 10% foetal calf serum; conditions: TAR+NN 2/1, complete medium with 10% FCS
Protocol: With the intention of seeing the stability of the dendriplexes in the presence of serum over time, a test was performed wherein to the samples was added complete medium which contained 10% foetal calf serum (FCS). The following samples were prepared with TAR as ODN:
As indicated, 20′ after its preparation 100 μl of complete medium were added to samples 1, 2 and 3. From each one of the samples 45 μl aliquots were taken after 40 minutes, 4 hours and 17 hours and they were subjected to electrophoresis in agarose gel. The samples were loaded in the gel following the ordering of its numbering from left to right, having previously situated a 100 bp ladder marker. In the last point (17 hours), only the 2/1 ratio complex was tested against ODN without NN. The results are shown in FIG. 7, wherein there appears a date on each one of the wells corresponding to samples with TAR+NN in 2/1 ratio.

U87-MG cells [1] = assay: Transfection of U87-MG cells mediated by dendrimers (flow cytometry); assay type: cell-based; conditions: dendriplex with anti-rev oligonucleotide 250 nM, − charge/+ charge ratio 1:8, 24 hours
Protocol: 100000 cells/well were plated of the corresponding cell line in a 24-well plate with 500 μl of medium.
Dendriplexes were formed with dendrimers NN and NN16 and the fluorescent anti-rev antisense oligonucleotide in a total volume of 75 μl of medium without serum, wherein the anti-rev oligonucleotide was mixed at a concentration 250 nM and the corresponding dendrimer in different proportions, so that different − charge/+ charge ratios were obtained: 1:1, 1:2, 1:4 and 1:8. The mixture was incubated during half an hour at ambient temperature and then it was added to the corresponding well to incubate the cells with dendriplexes.
After 24 hours of incubation, the cells were removed from the well, they were washed twice with PBS, they were incubated for 1 minute with acid glycine to remove the possible moieties of dendriplexes which may have remained adhered on the cell membrane, and a final wash was performed with PBS. Finally, the cells were resuspended in 500 μl of PBS and the quantity of fluorescent oligonucleotide inside the cell was quantified by flow cytometry.

U87-MG cells [2] = assay: Toxicity in U-87-MG cells: tests with MTT
Protocol: A test with U-87-MG cells was performed, wherein the effect of the dendrimers on the viability of said lines was studied at different times. To do this, 15000 (24 hour incubations), 7000 (3 day incubations) or 1500 (7 day incubations) cells per well were plated in 96-well plates. The cells were incubated with different concentrations (1 μM, 5 μM and 10 μM) either NN dendrimer or NN16 dendrimer, during 24 hours, 3 days and 7 days. […] Two different positive controls were also used: cells treated with 7% DMSO and cells treated with 1% Triton X-100.
In the case of Superfect, three doses were tested, the optimum dose recommended by the manufacturer (2.5 μl), a lower dose (1.25 μl) and another higher dose (5 μl). With regard to Polyfect, specifically designed for adherent cells, the three doses tested were: optimum dose (0.6 μl), lower dose (0.3 μl) and higher dose (1.2 μl).
After each corresponding incubation time, a test was performed with MTT analogous to that described in Example 38. At the absorbance value obtained in the untreated cells (C−) it was given the value of 1 and the moiety of the absorbencies produced was used to refer to it.

plasmid Nf-kappaB-luc = assay: Capacity to form complexes with large-sized DNA (plasmid); assay type: binding; conditions: charge ratio (+/−)=6/1 manages to retain DNA migration
Protocol: In a similar form to the previous experiments, electrophoresis was carried out with different samples, placing them a ladder type marker which measures up to 5000 pb in the well previous to it.

Structure (SMILES)	infection of PBMC by HIV (HIV DNA copies/10^6 cells adjusted to % live cells) (HIVNL4.3)	time after which the NN dendrimer releases the ODN (ODN TAR) [h]	percentage of cells transfected (U87-MG cells [1]) [%]	viability (MTT), untreated cells (C−) = 1 (U87-MG cells [2])	complex formation with plasmid (plasmid Nf-kappaB-luc)
CN(CCO[Si](C)(C)CCC[Si](C)(CCC[Si](CCC[Si](C)(CCC[Si](C)(C)OCCN(C)CC[N+](C)(C)C)CCC[Si](C)(C)OCCN(C)CC[N+](C)(C)C)(CCC[Si](C)(CCC[Si](C)(C)OCCN(C)CC[N+](C)(C)C)CCC[Si](C)(C)OCCN(C)CC[N+](C)(C)C)CCC[Si](C)(CCC[Si](C)(C)OCCN(C)CC[N+](C)(C)C)CCC[Si](C)(C)OCCN(C)CC[N+](C)(C)C)CCC[Si](C)(C)OCCN(C)CC[N+](C)(C)C)CC[N+](C)(C)C.[I-].[I-].[I-].[I-].[I-].[I-].[I-].[I-] [NN, 2G-[Si(O(CH2)2N(Me)(CH2)2NMe3^+I^−)]8]	good capacity for preventing the infection of lymphocytes by the HIV virus	17	95	0.6-0.75	
C[N+](C)(C)CCO[Si](C)(C)CCC[Si](C)(CCC[Si](CCC[Si](C)(CCC[Si](C)(C)OCC[N+](C)(C)C)CCC[Si](C)(C)OCC[N+](C)(C)C)(CCC[Si](C)(CCC[Si](C)(C)OCC[N+](C)(C)C)CCC[Si](C)(C)OCC[N+](C)(C)C)CCC[Si](C)(CCC[Si](C)(C)OCC[N+](C)(C)C)CCC[Si](C)(C)OCC[N+](C)(C)C)CCC[Si](C)(C)OCC[N+](C)(C)C.[I-].[I-].[I-].[I-].[I-].[I-].[I-].[I-] [IM8, 2G-[Si(OCH2CH2NMe3^+I^−)]8]					capable of forming complexes with the plasmid used
